# Measured values as given in ChEMBL document CHEMBL1158647, “Synthesis and Pharmacology of Mangostin-3,6-di-O-glucoside” (1979).
# Calls of active or inactive are those of the source. The calls are words filed in the database; no cut-off is given here.
# Tests used:
# [1] = tested on: Mus musculus; test: Effect on gross behavioral activity in Swiss albino mouse assessed as spontaneous motor activity at 5 mg/kg, ip after 45 mins using smoked drum; format: functional, organism-based; set-up: dose 5 mg/kg
# [2] = tested on: Mus musculus; test: Effect on gross behavioral activity in Swiss albino mouse assessed as sedation at 100 mg/kg, ip using smoked drum; format: functional, organism-based; set-up: dose 100 mg/kg
# [3] = tested on: Mus musculus; test: Effect on gross behavioral activity in Swiss albino mouse assessed as CNS depression at 300 mg/kg, ip using smoked drum; format: functional, organism-based; set-up: dose 300 mg/kg; conditions: Central nervous system
# [4] = tested on: Mus musculus; test: Effect on gross behavioral activity in Swiss albino mouse assessed as ptosis at 100 mg/kg, ip using smoked drum; format: functional, organism-based; set-up: dose 100 mg/kg
# [5] = tested on: Canis familiaris; test: Increase in intestinal movement in anesthetized Mongrel dog at 25 mg/kg, iv; format: functional, organism-based; set-up: dose 25 mg/kg; conditions: Canis lupus familiaris
# [6] = tested on: Mus musculus; test: Effect on gross behavioral activity in Swiss albino mouse assessed as ptosis at 200 mg/kg, ip using smoked drum; format: functional, organism-based; set-up: dose 200 mg/kg
# [7] = tested on: Mus musculus; test: Effect on gross behavioral activity in Swiss albino mouse assessed as CNS depression at 200 mg/kg, ip using smoked drum; format: functional, organism-based; set-up: dose 200 mg/kg; conditions: Central nervous system
# [8] = tested on: Mus musculus; test: Effect on gross behavioral activity in Swiss albino mouse assessed as decrease in motor activity at 200 mg/kg, ip using smoked drum; format: functional, organism-based; set-up: dose 200 mg/kg
# [9] = tested on: Mus musculus; test: Effect on gross behavioral activity in Swiss albino mouse assessed as decrease in motor activity at 100 mg/kg, ip using smoked drum; format: functional, organism-based; set-up: dose 100 mg/kg
# [10] = tested on: Rattus norvegicus; test: Increase in pentobarbital-induced sleeping time in Wistar albino rat administered 30 mins before pentobarbital challenge relative to control; format: functional
# [11] = tested on: Mus musculus; test: Effect on gross behavioral activity in Swiss albino mouse assessed as sedation at 200 mg/kg, ip using smoked drum; format: functional, organism-based; set-up: dose 200 mg/kg
# [12] = tested on: Canis familiaris; test: Increase in carotid blood pressure in anesthetized Mongrel dog at 25 mg/kg, iv; format: functional, organism-based; set-up: dose 25 mg/kg; conditions: Canis lupus familiaris
# [13] = tested on: Canis familiaris; test: Increase in carotid blood pressure in anesthetized Mongrel dog at 25 mg/kg, iv in presence of adrenaline; format: functional, organism-based; set-up: dose 25 mg/kg; conditions: Canis lupus familiaris
# [14] = tested on: Mus musculus; test: Effect on gross behavioral activity in Swiss albino mouse assessed as CNS depression at 100 mg/kg, ip using smoked drum; format: functional, organism-based; set-up: dose 100 mg/kg; conditions: Central nervous system
# [15] = tested on: Canis familiaris; test: Increase in carotid blood pressure in anesthetized Mongrel dog at 25 mg/kg, iv in presence of Priscol; format: functional, organism-based; set-up: dose 25 mg/kg; conditions: Canis lupus familiaris
# [16] = tested on: Canis familiaris; test: Increase in respiration in anesthetized Mongrel dog at 25 mg/kg, iv; format: functional, organism-based; set-up: dose 25 mg/kg; conditions: Canis lupus familiaris
# [17] = tested on: Mus musculus; test: Effect on gross behavioral activity in Swiss albino mouse assessed as spontaneous motor activity at 200 mg/kg, ip after 45 mins using smoked drum; format: functional, organism-based; set-up: dose 200 mg/kg
SMILES,Activity [1],Activity [2],Activity [3],Activity [4],Activity [5],Activity [6],Activity [7],Activity [8],Activity [9],Activity [10] [%],Activity [11],Activity [12],Activity [13],Activity [14],Activity [15],Activity [16],Activity [17]
CN(C)CCCN1c2ccccc2Sc2ccc(Cl)cc21,Active,,,,,,,,,,,,,,,,
COc1c(O[C@@H]2O[C@H](CO)[C@@H](O)[C@H](O)[C@H]2O)cc2oc3cc(O[C@@H]4O[C@H](CO)[C@@H](O)[C@H](O)[C@H]4O)c(CC=C(C)C)c(O)c3c(=O)c2c1CC=C(C)C,Active,Active,Active,Active,Active,Active,Active,Active,Active,53.81,Active,Active,Active,Active,Active,Active,Active
C[C@H](N)Cc1ccccc1,Active,,,,,,,,,,,,,,,,
